Laboratory results: patent US20250188092A1, “RIFAMYCIN ANALOGS” (THE REGENTS OF THE UNIVERSITY OF MICHIGAN, priority 2021, published 2025)
≈ marks a conversion by molar mass, not a printed value.

What was measured:
VERO cells (ATCC CRL-81) = test: Vero cell toxicity; assay type: cell-based; conditions: Chlorocebus sabaeus, Vero; 72 hours exposure
Method: Cytotoxicity for a mammalian cell line was determined by exposing VERO cells (ATCC CRL-81) to serial dilutions of test compounds for 72 hours, followed by addition of resazurin and measurement of fluorescence after 4 hours incubation (Choules, et al., Antimnicrob. Agents Chemother. 2019, 63, e02204-02218).

MTB H37Rv ATCC 27294 = test: MIC, microplate Alamar Blue assay (MABA); assay type: cell-based, Mycobacterium tuberculosis
DPX2 cells = conditions: for DPX2 Viability @ 6.25 μM: 24 h; for DPX2 Viability @ 25 μM: human
[1] = Mycobacterium tuberculosis, MTB H37Rv ATCC 27294, microplate Alamar Blue assay, lowest concentration giving ≥90% reduction in fluorescence

Row | SMILES | IC50 (VERO cells (ATCC CRL-81)) | MIC90 MABA Rel to RMP (MTB H37Rv ATCC 27294) | MIC90 (MTB H37Rv ATCC 27294; [1]) | DPX2 Viability @ 6.25 μM (DPX2 cells) | DPX2 Viability @ 25 μM (DPX2 cells) | MIC (MTB H37Rv ATCC 27294; Mycobacterium tuberculosis, MTB H37Rv ATCC 27294, microplate Alamar Blue assay, lowest concentration giving ≥90% reduction in fluorescence, read-out: MIC90 MABA)
1 | CO[C@H]1/C=C/O[C@@]2(C)Oc3c(C)c(O)c4c(=O)c(c5oc6cc(N7CCN(C(=O)c8ccccc8)CC7)cc(OCc7ccc(CN8CCOCC8)cc7)c6nc-5c4c3C2=O)NC(=O)/C(C)=C\C=C\[C@H](C)[C@H](O)[C@@H](C)[C@@H](O)[C@@H](C)[C@H](OC(C)=O)[C@@H]1C [Compound 17m, (7S,9E,11S,12R,13S,14R,15R,16R,17S,18S,19E,21Z)-30-(4-benzoylpiperazin-1-yl)-2,15,17-trihydroxy-1-methoxy-3,7,12,14,16,18,22-heptamethyl-32-{[4-(morpholin-4-ylmethyl)phenyl]methoxy}-6,23,37-trioxo-8,27,38-trioxa-24,34-diazahexacyclo-[23.11.1.1^4,7.0^5,36.0^26,35.0^28,33]octatriaconta-1,3,5(36)9,19,21,25,28,30,32,34-undecaen-13-yl acetate] | > 10 µM | 0.34 | 0.017 µM | 89% | 78% | –
2 | CO[C@H]1/C=C/O[C@@]2(C)Oc3c(C)c(O)c4c(=O)c(c5oc6cc(N7CCN(C(=O)c8ccc9occc9c8)CC7)cc(C)c6nc-5c4c3C2=O)NC(=O)/C(C)=C\C=C\[C@H](C)[C@H](O)[C@@H](C)[C@@H](O)[C@@H](C)[C@H](OC(C)=O)[C@@H]1C [Compound 29c, (7S,9E,11S,12R,13S,14R,15R,16R,17S,18S,19E,21Z)-30-[4-(1-Benzofuran-5-carbonyl)piperazin-1-yl]-2,15,17-trihydroxy-11-methoxy-3,7,12,14,16,18,22,32-octamethyl-6,23,37-trioxo-8,27,38-trioxa-24,34-diazahexacyclo[23.11.1.1^4,7.0^5,36.0^26,35.0^28,33]octatriaconta-(36)2,4,9,19,21,25,28,30,32,34-undecaen-13-yl acetate] | > 10 µM | 0.18 | 0.0049 µM | 121% | 114% | –
3 | CO[C@H]1/C=C/O[C@@]2(C)Oc3c(C)c(O)c4c(=O)c(c5oc6cc(N7CCN(CC(C)C)CC7)cc(OCc7ccc(CN8CCN(C)CC8)cc7)c6nc-5c4c3C2=O)NC(=O)/C(C)=C\C=C\[C@H](C)[C@H](O)[C@@H](C)[C@@H](O)[C@@H](C)[C@H](OC(C)=O)[C@@H]1C [Compound 17p, (7S,9E,11S,12R,13S,14R,15R,16R,17S,18S,19E,21Z)-2,15,17-trihydroxy-11-methoxy-3,7,12,14,16,18,22-heptamethyl-32-({4-[(4-methylpiperazin-1-yl)methyl]phenyl}methoxy)-30-[4-(2-methylpropyl)piperazin-1-yl]-6,23,37-trioxo-8,27,38-trioxa-24,34-diazahexacyclo-[23.11.1.1^4,7.0^5,36.0^26,35.0^28,33]octatriaconta-1,3,5(36)9,19,21,25,28,30,32,34-undecaen-13-yl acetate] | > 10 µM | – | 0.0094 µM | 116% | 80% | –
4 | CO[C@H]1/C=C/O[C@@]2(C)Oc3c(C)c(O)c4c(=O)c(c5oc6cc(N7CCC(C(=O)O)CC7)cc(OCc7ccc(CN8CCN(C)CC8)cc7)c6nc-5c4c3C2=O)NC(=O)/C(C)=C\C=C\[C@H](C)[C@H](O)[C@@H](C)[C@@H](O)[C@@H](C)[C@H](OC(C)=O)[C@@H]1C [Compound 17q, 1-[(7S,9E,11S,12R,13S,14R,15R,16R,17S,18S,19E,21Z)-13-(acetyloxy)-2,15,17-trihydroxy-11-methoxy-3,7,12,14,16,18,22-heptamethyl-32-({4-[(4-methylpiperazin-1-yl)methyl]phenyl}methoxy)-6,23,37-trioxo-8,27,38-trioxa-24,34-diazahexacyclo-[23.11.1.1^4,7.0^5,36.0^26,35.0^28,33]-octatriaconta-1,3,5(36)9,19,21,25,28,30,32,34-undecaen-30-yl]piperidine-4-carboxylic acid] | > 10 µM | 16 | 0.415 µM (≈ 0.469 µg/mL) | 100% | 98% | –
5 | CO[C@H]1/C=C/O[C@@]2(C)Oc3c(C)c(O)c4c(=O)c(c5oc6cc(N7CCN(C(=O)c8ccc9occc9c8)CC7)cc(OCc7ccc(CN8CCOCC8)cc7)c6nc-5c4c3C2=O)NC(=O)/C(C)=C\C=C\[C@H](C)[C@H](O)[C@@H](C)[C@@H](O)[C@@H](C)[C@H](OC(C)=O)[C@@H]1C [Compound 17s, (7S,9E,11S,12R,13S,14R,15R,16R,17S,18S,19E,21Z)-30-{4-[(1-benzofuran-5-yl)carbonyl]piperazin-1-yl}-2,15,17-trihydroxy-11-methoxy-3,7,12,14,16,18,22-heptamethyl-32-{[4-(morpholin-4-ylmethyl)phenyl]methoxy}-6,23,37-trioxo-8,27,38-trioxa-24,34-diazahexacyclo[23.11.1.1^4,7.0^5,36.0^26,35.0^28,33]octatriaconta-1,3,5(36)9,19,21,25,28,30,32,34-undecaen-13-yl acetate] | > 10 µM | 0.36 | 0.018 µM | 102% | 86% | –
6 | CO[C@H]1/C=C/O[C@@]2(C)Oc3c(C)c(O)c4c(=O)c(c5oc6cc(C)cc(N7CCN(CCn8ccnc8)CC7)c6nc-5c4c3C2=O)NC(=O)/C(C)=C\C=C\[C@H](C)[C@H](O)[C@@H](C)[C@@H](O)[C@@H](C)[C@H](OC(C)=O)[C@@H]1C [Compound 30e, (7S,9E,11S,12R,13S,14R,15R,16R,17S,18S,19E,21Z)-2,15,17-Trihydroxy-32-{4-[3-(1H-imidazol-1-yl)ethyl]piperazin-1-yl}-11-methoxy-3,7,12,14,16,18,22,30-octamethyl-6,23,37-trioxo-8,27,38-trioxa-24,34-diazahexacyclo[23.11.1.1^4,7.0^5,36.0^26,35.0^28,33]octatriaconta-1(36)2,4,9,19,21,25,28,30,32,34-undecaen-13-yl acetate] | > 10 µM | 3.11 | 0.084 µM | 130% | 119% | –
7 | CO[C@H]1/C=C/O[C@@]2(C)Oc3c(C)c(O)c4c(=O)c(c5oc6cc(N7CCC(C(=O)O)CC7)cc(OCc7ccc(CN8CCOCC8)cc7)c6nc-5c4c3C2=O)NC(=O)/C(C)=C\C=C\[C@H](C)[C@H](O)[C@@H](C)[C@@H](O)[C@@H](C)[C@H](OC(C)=O)[C@@H]1C [Compound 17k] | > 10 µM | 11 | – | 131% | 34% | 0.3 µM (≈ 0.335 µg/mL)
8 | CO[C@H]1/C=C/O[C@@]2(C)Oc3c(C)c(O)c4c(=O)c(c5oc6cc(N7CCN(C(=O)c8ccncc8)CC7)cc(OCc7ccc(CN8CCOCC8)cc7)c6nc-5c4c3C2=O)NC(=O)/C(C)=C\C=C\[C@H](C)[C@H](O)[C@@H](C)[C@@H](O)[C@@H](C)[C@H](OC(C)=O)[C@@H]1C [Compound 17n, 7S,9E,11S,12R,13S,14R,15R,16R,17S,18S,19E,21Z)-2,15,17-trihydroxy-11-methoxy-3,7,12,14,16,18,22-heptamethyl-32-{[4-(morpholin-4-ylmethyl)phenyl]methoxy}-6,23,37-trioxo-30-{4-[(pyridin-4-yl)carbonyl]piperazin-1-yl}-8,27,38-trioxa-24,34-diazahexacyclo[23.11.1.1^4,7.0^5,36.0^26,35.0^28,33]octatriaconta-1,3,5(36)9,19,21,25,28,30,32,34-undecaen-13-yl acetate] | > 10 µM | 1.5 | 0.073 µM | 102% | 98% | –
9 | CO[C@H]1/C=C/O[C@@]2(C)Oc3c(C)c(O)c4c(=O)c(c5oc6cccc(OCc7ccc(CN8CCOCC8)cc7)c6nc-5c4c3C2=O)NC(=O)/C(C)=C\C=C\[C@H](C)[C@H](O)[C@@H](C)[C@@H](O)[C@@H](C)[C@H](OC(C)=O)[C@@H]1C [Compound 16d, (7S,9E,11S,12R,13S,14R,15R,16R,17S,18S,19E,21Z)-2,15,17-Trihydroxy-11-methoxy-3,7,12,14,16,18,22-heptamethyl-32-({4-[(morpholin-4-yl)methyl]phenyl}methoxy)-6,23,37-trioxo-8,27,38-trioxa-24,34-diazahexacyclo[23.11.1.1^4,7.0^5,36.0^26,35.0^28,33]octatriaconta-1(36)2,4,9,19,21,25,28,30,32,34-undecaen-13-yl acetate] | > 10 µM | 0.07 | 0.0037 µM | 79% | 59% | –
10 | CO[C@H]1/C=C/O[C@@]2(C)Oc3c(C)c(O)c4c(=O)c(c5oc6cc(N7CCN(C8CCN(C)CC8)CC7)cc(OCc7ccc(CN8CCOCC8)cc7)c6nc-5c4c3C2=O)NC(=O)/C(C)=C\C=C\[C@H](C)[C@H](O)[C@@H](C)[C@@H](O)[C@@H](C)[C@H](OC(C)=O)[C@@H]1C [Compound 17h, (7S,9E,11S,12R,13S,14R,15R,16R,17S,18S,19E,21Z)-2,15,17-trihydroxy-11-methoxy-3,7,12,14,16,18,22-heptamethyl-30-[4-(1-methylpiperidin-4-yl)piperazin-1-yl]-32-{[4-(morpholin-4-ylmethyl)phenyl]methoxy}-6,23,37-trioxo-8,27,38-trioxa-24,34-diazahexacyclo-[23.11.1.1^4,7.0^5,36.0^26,35.0^28,33]octatriaconta-1,3,5(36)9,19,21,25,28,30,32,34-undecaen-13-yl acetate] | > 10 µM | 1.3 | 0.035 µM | 94% | 83% | –
